Assay [1] deals with T1, TANK binding kinase (TBK1) (Homo sapiens, UniProt Q9UHD2).
T1 sequence (Q9UHD2 1-729): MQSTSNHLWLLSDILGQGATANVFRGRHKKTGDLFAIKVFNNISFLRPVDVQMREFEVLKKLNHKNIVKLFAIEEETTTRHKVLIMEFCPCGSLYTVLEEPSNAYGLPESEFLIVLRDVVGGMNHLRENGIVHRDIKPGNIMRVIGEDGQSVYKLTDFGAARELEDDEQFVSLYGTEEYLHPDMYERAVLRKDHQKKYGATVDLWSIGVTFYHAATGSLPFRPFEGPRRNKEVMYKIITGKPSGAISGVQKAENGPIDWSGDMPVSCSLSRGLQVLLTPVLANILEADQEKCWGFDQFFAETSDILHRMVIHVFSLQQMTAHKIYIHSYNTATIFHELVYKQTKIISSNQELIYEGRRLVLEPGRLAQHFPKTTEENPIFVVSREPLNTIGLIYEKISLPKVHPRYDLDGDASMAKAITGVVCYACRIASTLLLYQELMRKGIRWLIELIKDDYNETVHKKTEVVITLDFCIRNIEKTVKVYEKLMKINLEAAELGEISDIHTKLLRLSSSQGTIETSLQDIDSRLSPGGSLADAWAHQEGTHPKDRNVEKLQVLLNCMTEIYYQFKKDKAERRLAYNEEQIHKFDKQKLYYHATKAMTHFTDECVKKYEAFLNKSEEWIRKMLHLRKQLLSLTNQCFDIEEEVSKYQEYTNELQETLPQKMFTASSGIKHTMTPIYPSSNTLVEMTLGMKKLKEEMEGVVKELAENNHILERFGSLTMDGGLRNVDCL
The assay is described as follows: TBK1 enzyme assay (384-well Flashplate kinase assay). Format: biochemical. Conditions: 10 μM ATP, 120 Min at 30° C. Put shortly:
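Radiometric Flashplate assay: 0.6 nM TBK1, 800 nM biotinylated MELK-derived peptide and 10 μM ATP with 33P-ATP, 120 min at 30 °C in MOPS/Mg-acetate buffer pH 7.5. Stopped with EDTA; nonspecific signal defined with 100 nM staurosporine; IC50 from counted radioactivity.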

The target in assay [2] is T2, IKKε (Homo sapiens, UniProt Q14164).
T2 sequence (Q14164 1-716): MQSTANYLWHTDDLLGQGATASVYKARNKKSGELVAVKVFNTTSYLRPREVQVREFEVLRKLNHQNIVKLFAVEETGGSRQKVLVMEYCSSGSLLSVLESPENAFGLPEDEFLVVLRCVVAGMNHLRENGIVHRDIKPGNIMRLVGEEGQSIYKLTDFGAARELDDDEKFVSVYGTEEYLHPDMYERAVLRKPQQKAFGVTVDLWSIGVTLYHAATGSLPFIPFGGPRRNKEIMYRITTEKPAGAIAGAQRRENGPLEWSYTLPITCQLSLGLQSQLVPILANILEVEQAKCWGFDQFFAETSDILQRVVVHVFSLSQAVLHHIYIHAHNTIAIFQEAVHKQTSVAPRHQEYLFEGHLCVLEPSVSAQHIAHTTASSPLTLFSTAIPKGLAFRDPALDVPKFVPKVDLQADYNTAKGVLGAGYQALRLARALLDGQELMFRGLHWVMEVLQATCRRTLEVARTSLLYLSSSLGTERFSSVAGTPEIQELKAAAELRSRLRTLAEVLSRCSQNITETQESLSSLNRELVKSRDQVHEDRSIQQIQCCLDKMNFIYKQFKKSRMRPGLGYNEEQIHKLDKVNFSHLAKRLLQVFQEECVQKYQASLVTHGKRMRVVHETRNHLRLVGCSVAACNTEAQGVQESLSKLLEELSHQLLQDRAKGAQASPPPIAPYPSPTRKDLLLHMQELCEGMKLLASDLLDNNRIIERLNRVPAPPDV
The assay is described as follows: IKKε kinase assay (384-well Flashplate). The format is biochemical. Conditions: 10 μM ATP, 2 hours at 30° C.; read-out: IKKε enzyme assay IC50. Put shortly: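 1 nM IKKε with 800 nM biotinylated IκBα(19-42) peptide and 10 μM ATP spiked with ^33P-ATP, 2 h at 30 °C in MOPS buffer pH 7.5. EDTA stop, Flashplate capture, washes, then radioactivity counted; IC50 derived.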

This passage reports IC50 results from patent US9045493B2, “Furo[3,2-b]- and thieno[3,2-b]pyridin derivatives” (Merck Patent GmbH, priority 2012, dated 2015).

As for `N#Cc1cc(-c2ccnc3cc(-c4ccc(C(=O)O)cc4)oc23)ccc1OC1CCOCC1` [Compound A16a, 4-{7-[3-Cyano-4-(tetrahydro-pyran-4-yloxy)-phenyl]-furo[3,2-b]pyridin-2-yl}-benzoic acid], the IC50 in assay [1] and in assay [2] was 300 to 3000 nM each time.
For the molecule `COc1cc(-c2cc3nccc(-c4ccc(OC5CCOCC5)c(C#N)c4)c3o2)ccc1C(=O)NCCN(C)C` [Compound A32, 4-{7-[3-cyano-4-(tetrahydro-pyran-4-yloxy)-phenyl]-furo[3,2-b]pyridin-2-yl}-N-(2-dimethylamino-ethyl)-2-methoxy-benzamide], the IC50 in assay [1] and in assay [2] was less than 300 nM in each case.
As for `CN1CCN(c2cccc(-c3cc4nccc(-c5ccc(OC6CCOCC6)c(C#N)c5)c4o3)c2)CC1` [Compound A9, 5-{2-[3-(4-methyl-piperazin-1-yl)-phenyl]-furo[3,2-b]pyridin-7-yl}-2-(tetrahydro-pyran-4-yloxy)-benzonitrile], the IC50 in assay [1] and in assay [2] was less than 300 nM in each case.
Regarding `COc1cc(-c2cc3nccc(-c4ccc(OC5CCOCC5)c(C#N)c4)c3o2)ccc1C(=O)NC1CCOCC1` [Compound A105], the IC50 in assay [1] and in assay [2] was less than 300 nM each time.
Turning to `COc1cc(-c2cc3nccc(-c4ccc(OC5CCOCC5)c(C#N)c4)c3o2)ccc1C(=O)N1CCOCC1` [Compound A104], the IC50 in assay [1] and in assay [2] was less than 300 nM each time.
Turning to `N#Cc1cc(-c2ccnc3cc(-c4cncc(C(=O)N5CCOCC5)c4)oc23)ccc1OC1CCOCC1` [Compound A65], the IC50 in assay [1] and in assay [2] was less than 300 nM in each case.
As for `COc1cncc(-c2cc3nccc(-c4ccc(OC5CCOCC5)c(C#N)c4)c3o2)c1` [Compound A66], the IC50 in assay [1] is 300 to 3000 nM; in assay [2], less than 300 nM.
In the same order, the values of `N#Cc1cc(-c2ccnc3cc(-c4cccc5[nH]cnc45)oc23)ccc1OC1CCOCC1` [Compound A13, 5-[2-(1H-benzoimidazol-4-yl)-furo[3,2-b]pyridin-7-yl]-2-(tetrahydro-pyran-4-yloxy)-benzonitrile] are 300 to 3000 nM and 300 to 3000 nM.
For `N#Cc1cc(-c2ccnc3cc(-c4ccc(C(=O)NCCN5CCOCC5)cc4)oc23)ccc1OC1CCOCC1` [Compound A79], the IC50 in assay [1] and in assay [2] was less than 300 nM in each case.
For `N#Cc1cc(-c2ccnc3cc(-c4ccc(C(=O)N5CCNCC5)cc4)sc23)ccc1OC1CCOCC1` [Compound A53], the IC50 in assay [1] and in assay [2] was less than 300 nM throughout.
As to `N#Cc1cc(-c2ccnc3cc(-c4cnn(CCO)c4)sc23)ccc1OC1CCOCC1` [Compound A108], the IC50 in assay [1] and in assay [2] was less than 300 nM in each case.
Consider `CN1CCN(C(=O)c2ccc(-c3cc4nccc(-c5ccc(OCC6CC6)c(C#N)c5)c4o3)cc2)CC1` [Compound A39], for which the IC50 in assay [1] and in assay [2] was less than 300 nM throughout.
With `CN(CCO)C(=O)c1ccc(-c2cc3nccc(-c4ccc(OC5CCOCC5)c(C#N)c4)c3o2)c(F)c1` [Compound A107], the IC50 in assay [1] and in assay [2] was less than 300 nM throughout.
For `COc1cc(-c2cc3nccc(-c4ccc(OC5CCOCC5)c(C#N)c4)c3o2)ccc1C(=O)N1CCOC(CCO)C1` (stereo not drawn) [Compound A103], the IC50 in assay [1] and in assay [2] was less than 300 nM throughout.
Regarding `N#Cc1cc(-c2ccnc3cc(-c4ccc(C(=O)N5CCNC(=O)CC5)cc4F)oc23)ccc1OC1CCOCC1` [Compound A112], the IC50 in assay [1] and in assay [2] was less than 300 nM throughout.
For the molecule `N#Cc1cc(-c2ccnc3cc(-c4ccc5[nH]c(=O)[nH]c5c4)oc23)ccc1OC1CCOCC1` [Compound A14, 5-[2-(2-oxo-2,3-dihydro-1H-benzoimidazol-5-yl)-furo[3,2-b]pyridin-7-yl]-2-(tetrahydro-pyran-4-yloxy)-benzonitrile], the IC50 in assay [1] and in assay [2] was 3000 to 50000 nM throughout.
`Cc1ccc(-c2cc3nccc(-c4ccc(OC5CCOCC5)c(C#N)c4)c3o2)o1` [Compound A49]: the IC50 in assay [1] and in assay [2] was less than 300 nM each time.
With `CN(CCO)C(=O)c1ccc(-c2cc3nccc(-c4ccc(OC5CCOCC5)c(C#N)c4)c3o2)cc1` [Compound A25, 4-{7-[3-cyano-4-(tetrahydro-pyran-4-yloxy)-phenyl]-furo[3,2-b]pyridin-2-yl}-N-(2-hydroxy-ethyl)-N-methyl-benzamide], the IC50 in assay [1] and in assay [2] was less than 300 nM each time.
Take `CN1CCN(c2ccc(-c3cc4nccc(-c5ccc(OC6CCOCC6)c(C#N)c5)c4o3)cc2)CC1` [Compound A10, 5-{2-[4-(4-methyl-piperazin-1-yl)-phenyl]-furo[3,2-b]pyridin-7-yl}-2-(tetrahydro-pyran-4-yloxy)-benzonitrile]: the IC50 in assay [1] and in assay [2] was less than 300 nM throughout.
On to `N#Cc1cc(-c2ccnc3cc(-c4ccc(C(=O)NCCc5cccnc5)cc4)oc23)ccc1OC1CCOCC1` [Compound A81], for which the results for the IC50 in assay [1] and in assay [2] were 300 to 3000 nM and less than 300 nM, respectively.
On to `N#Cc1cc(-c2ccnc3cc(-c4cnn(C5CCN(CCO)CC5)c4)oc23)ccc1OC1CCOCC1` [Compound A67], for which the IC50 in assay [1] and in assay [2] was less than 300 nM in each case.
On to `COCCn1cc(-c2cc3nccc(-c4ccc(OC5CCOCC5)c(C#N)c4)c3s2)cn1` [Compound A119], for which the IC50 in assay [1] and in assay [2] was less than 300 nM in each case.
For `COc1cc(-c2cc3nccc(-c4ccc(OC5CCOCC5)c(C#N)c4)c3o2)ccc1C(=O)N(C)C1CCOCC1` [Compound A102], the IC50 in assay [1] and in assay [2] was less than 300 nM throughout.
Turning to `CCN(CCOC)C(=O)c1cccc(-c2cc3nccc(-c4ccc(OC5CCOCC5)c(C#N)c4)c3o2)c1` [Compound A26a, 3-{7-[3-cyano-4-(tetrahydro-pyran-4-yloxy)-phenyl]-furo[3,2-b]pyridin-2-yl}-N-ethyl-N-(2-methoxy-ethyl)-benzamide], the IC50 in assay [1] and in assay [2] was 300 to 3000 nM each time.
Turning to `COCCNC(=O)c1ccc(-c2cc3nccc(-c4ccc(OC5CCOCC5)c(C#N)c4)c3o2)cc1` [Compound A22, 4-{7-[3-cyano-4-(tetrahydro-pyran-4-yloxy)-phenyl]-furo[3,2-b]pyridin-2-yl}-N-(2-methoxy-ethyl)-benzamide], the IC50 in assay [1] and in assay [2] was 300 to 3000 nM throughout.
`COc1cc(C(=O)N[C@@H]2CCCNC2)ccc1-c1cc2nccc(-c3ccc(OC4CCOCC4)c(C#N)c3)c2o1` [Compound A120]: the IC50 in assay [1] and in assay [2] was less than 300 nM throughout.
Consider `CN(CCO)C(=O)c1ccc(-c2cc3nccc(-c4ccc(OCC5CC5)c(C#N)c4)c3o2)cc1` [Compound A41], for which the IC50 in assay [1] and in assay [2] was less than 300 nM each time.
Consider `N#Cc1cc(-c2ccnc3cc(-c4cccc5[nH]ccc45)oc23)ccc1OC1CCOCC1` [Compound A58], for which the IC50 in assay [1] and in assay [2] was less than 300 nM throughout.
Regarding `COc1ccccc1-c1cc2nccc(-c3ccc(OC4CCOCC4)c(C#N)c3)c2o1` [Compound A5, 5-[2-(2-methoxy-phenyl)-furo[3,2-b]pyridin-7-yl]-2-(tetrahydro-pyran-4-yloxy)-benzonitrile], the IC50 in assay [1] and in assay [2] was less than 300 nM each time.
Turning to `COc1cc(-c2cc3nccc(-c4ccc(OC5CCOC5)c(C#N)c4)c3s2)ccc1C(=O)N1CCNCC1` (stereo not drawn) [Compound A100], the IC50 in assay [1] and in assay [2] was less than 300 nM throughout.

A word on the IC50: it is the concentration needed to halve the response being measured.
